Assay: Planar scintigraphy of 111In-compounds in normal rats
Format: in vivo
Conditions: 1, 24 and 48 hours after ^111In-OMS or ^111In-OB121
Experimental: FIG. 31 is planar scintigraphy of ^111In-Compounds ([…], iv, at 1-48 hours acquired 500,000, count) in normal rats.
Pamidronate (PAM), Methyl diphosphonate (MDP) and OMS are bone-related agents and were used as control group in present invention. Scintigraphic images, captured by a gamma camera equipped with low-energy, parallel-hole collimator or micro-PET, were obtained in 0.5-2 hours. The selected images are shown in FIGS. 29 and 30, wherein FIG. 29 compares the planar images of 30, 60, and 120 min of normal rats which were taken ^99mTc-PAM, ^99mTc-MDP, ^99mTc-OMS, ^99mTc-OB141, ^99mTc-OB 121 and ^99mTc-DTPA-BP respectively. FIG. 30 compares the planar images of 20, 60, and 150 min of normal rats which were taken ^99mTc-MDP, ^99mTc-DTPA-AMDP, and ^99mTc-MAMA-AMDP respectively. Higher joint-to-muscle (J/M) or bone-to-muscle (B/M) ratios and the better quality of bone images were achieved. […] Besides, as tetraazacyclic groups are very lipophilic so that they may have potential applications in the treatment of osteoporosis. Thus, tetraazacyclic groups were labeled with In-111 for longer observation.

## O=P(O)(O)C(O)(CN1CCN(CC(O)(P(=O)(O)O)P(=O)(O)O)CCN(CC(O)(P(=O)(O)O)P(=O)(O)O)CCN(CC(O)(P(=O)(O)O)P(=O)(O)O)CC1)P(=O)(O)O [OB-121, 1,4,7,10-Tetraazacyclododecane-1,4,7,10-tetrakis(2-hydroxy-ethylenebisphosphonate)]
  quality of planar images: better compound for getting high quality images
